These results are taken from patent US20190381015A1, “PHARMACEUTICAL USE OF BERBERINE” (priority 2016, published 2019).

Data set [1] has as its system pulmonary arterial smooth muscle cells. The experiment in a line: Noradrenaline-stimulated pulmonary arterial smooth muscle cells: Grk2 and LKB1. In kind it is cell-based. The conditions noted are these: pulmonary arterial smooth muscle cells of normal animals, berberine added for 30 minutes (CTL group), FIG. 1. Here is the method: FIG. 1 is a schematic diagram of berberine inhibiting noradrenaline. The pulmonary arterial smooth muscle cells are stimulated with noradrenaline (NE) for 2 hours and then randomly divided into a berberine group (Ctl group, berberine for 4 hours) and a control group. In the control group, cells are collected at various time points (30 minutes-4 hours) after the grouping, and the protein phosphorylation activities of liver kinase B1 (LKB1) and G-protein coupled receptor kinase 2 (Grk2) are measured. GAPDH is an internal reference protein.

The subject of data set [2] is in-stent restenosis. Description: In-stent restenosis in patients with drug-eluting stent implantation. In kind it is in vivo, human. Here is the method:
FIG. 5 is an experimental control diagram of berberine in the prevention and treatment of in-stent restenosis.
100 patients with drug-eluting stent implantation were randomly divided into two groups: a control group (without additional berberine) and a berberine group (additionally administered with berberine at 0.3 g/d since the 3th month after surgery for a total of 6 months), and coronary angiography was performed again at the 12th month after surgery.

Data set [3] relates to pulmonary hypertension induced by dehydrogenated monocrotaline. Description: Dehydrogenated monocrotaline-induced pulmonary hypertension in beagles. The data set is classed as in vivo. The source says: FIG. 2 is a mirror view for a contrast experiment of berberine inhibiting pulmonary artery remodeling. Animals with pulmonary hypertension are randomly divided into a normal control group, a berberine group, and a blank group without treatment. Histochemical staining (HE) and vascular endothelial vWF staining, smooth muscle cell staining (SMA).
20 beagles were selected, were subjected to pulmonary hemodynamics measurement, and then were randomly divided into a berberine group ([…]) and a control group (intragastric gavage of a berberine coating, without berberine, 14 days in total). […] Results: the mean pulmonary arterial pressure of only one animal in the berberine group reaches 28 mmHg, and the mean pulmonary arterial pressures of the other 9 animals are all <25 mmHg (19±3.0 mmHg). In contrast, the mean pulmonary arterial pressures of 8 animals in the control group are all >26 mmHg (28.4±2.1 mmHg), one animal for 24.6 mmHg, and the other one for 24.8 mmHg.

Data set [4] relates to idiopathic pulmonary hypertension. The experiment in a line: Clinical experiment in patients with idiopathic pulmonary hypertension. In kind it is in vivo, human. The conditions noted are these: berberine 0.3 g/d for 3 months added to original targeted drugs, 3 per group. The text has this: FIG. 4 is a histogram of contrast experiment data showing that berberine reduces the mean pulmonary arterial pressure. […] Every three data columns in the figure are a group, and are a normal group, a blank group, and a berberine group from left to right in sequence.
Six patients with idiopathic pulmonary hypertension were divided into two groups (3 in each group): a control group (administered with targeted drugs according to the original doses) and a berberine group (based on the original targeted drugs, additionally administered with berberine at 0.3 g/d for a total of 3 months).

For data set [5], the system named is myocardial infarction model. Description: Myocardial infarction animal model. In kind it is in vivo. The text has this:
FIG. 6 is an experimental result diagram showing berberine for prevention and treatment of ischemic cardiomyopathy.
30 animals in the myocardial infarction model were randomly divided into a control group and a berberine group by intragastric gavage.

For data set [6] the following is noted: cited from earlier work.
The subject of data set [7] is acute myocardial infarction. Description: Cardiac failure in patients with acute myocardial infarction / ischemic cardiomyopathy. In kind it is in vivo, human. The source says: 40 patients with acute myocardial infarction were randomly divided into a control group and a berberine group (0.3 g, three times a day, three months later). The mean left ventricular ejection fraction of the control group is 41%, while the mean left ventricular ejection fraction of the berberine group is increased to 53% (p=0.037).

The mark [8] stands for this setting: beagles, intragastric gavage 0.1 g/d for 14 days before dehydrogenated monocrotaline 60 mg/kg, retested after 8 weeks, 9 of 10 animals.

Entries after “also recorded” stand apart in the source; their conditions may differ. A value given as a limit tells only on which side of the number the result lay.

For the molecule `COc1ccc2cc3[n+](cc2c1OC)CCc1cc2c(cc1-3)OCO2` [berberine], the “Grk2 and LKB1 after noradrenaline stimulation” value in data set [1] is reported as “significant decrease”. Besides, in data set [2] (7 control patients with restenosis, oral berberine 0.3 g/d for 6 months, followed up 9 months, result in 6 patients, FIG. 5), the “stenosis degree in patients with restenosis treated afterwards” value was “significantly reduced”. Also, the “proportion of in-stent restenosis” value in data set [2] (berberine 0.3 g/d from 3rd month after surgery for 6 months, coronary angiography at 12th month, control 14%, p=0.035) is listed as 4%. Besides, the “number of cases showing restenosis” value in data set [2] (berberine 0.3 g/d from 3rd month after surgery for 6 months, coronary angiography at 12th month, control N=7) is given as 2 cases. Besides, the “in-stent restenosis on coronary angiography, single patient” value in data set [2] (patient with severe in-stent restenosis, continuous berberine treatment for 6 months, FIG. 5) is given as “substantially disappears”. The degree of stenosis in data set [2] (restenosis cases of berberine group, 12th month after surgery, control 76.3±9%, p=0.029) was 58±4%. Moreover, the “proliferation degree of pulmonary arterial smooth muscle / pathological remodeling of pulmonary vasculature” value in data set [3] (8 control animals with mean pulmonary arterial pressure >25 mmHg, then berberine intragastric gavage 0.1 g/d for 42 days, at 14 weeks, FIG. 2) is “significantly reduced”. Further, the “mean pulmonary arterial pressure, one animal of the berberine group” value in data set [3] (beagles, intragastric gavage 0.1 g/d for 14 days before dehydrogenated monocrotaline 60 mg/kg, retested after 8 weeks, 1 of 10 animals) is given as 28 mmHg. Moreover, in data set [3] (setting [8]), the “mean pulmonary arterial pressures, other 9 animals of the berberine group (bound)” value is < 25 mmHg and the “mean pulmonary arterial pressures, other 9 animals of the berberine group (mean ± spread)” value was 19±3.0 mmHg. Also, in data set [4] (FIG. 3), the “right ventricular function (right ventricular systolic displacement amplitude, TAPSE)” value was “significantly improved”. Besides, the “mean pulmonary arterial pressure” value in data set [4] (FIG. 4) is “significantly reduced”. In addition, the arrangement of cardiomyocytes entry in data set [5] (berberine treatment group) is reported as “arranged intactly”. For the same molecule, the “apoptotic bodies (electron microscopy)” value in data set [5] (intragastric gavage, 0.3 g three times a day, three months later, FIG. 6 right A-C) is “decrease”. Further, the “apoptosis of myocardial cells” value in data set [5] (intragastric gavage, 0.3 g three times a day, three months later, fluorescent staining, FIG. 6 left) is on record as “significantly reduces”. For the same molecule, in data set [6] (benzene, diethyl ether, chloroform), the “solubility in benzene, diethyl ether, and chloroform” value is listed as “insoluble”. The “solubility in water” value in data set [6] (water) is “soluble”. Moreover, the “cardiac cavity, single patient” value in data set [7] (one patient with acute anterior myocardial infarction, berberine treatment for 3 months, FIG. 7) is on record as “reduced”. In data set [7] (one patient, day 22 after myocardial infarction, then berberine for 3 months, ultrasonic cardiography, FIG. 7), the “ejection fraction, single patient” value is listed as “significantly increased; also recorded: significant increased”. Moreover, in data set [7] (one patient, berberine for 3 months, FIG. 7), the “myocardial contractility / systolic function, single patient” value is “improved; also recorded: significantly enhanced”. For the same molecule, in data set [7] (patients with acute myocardial infarction, 0.3 g three times a day, three months later, control 41%, p=0.037), the “mean left ventricular ejection fraction” value is recorded as 53%.
